Measured values published in BindingDB's records for patent US20250213571 (Alumis, 2025).

Target: T1, Non-receptor tyrosine-protein kinase TYK2 [556-888] (Homo sapiens, UniProt P29597)
T1 construct: 556-888
Assay: TYK2 JH2 Domain Binding Assay
Procedure: Binding constants for the compounds described herein against the JH2 domain were determined by the following protocol for a KINOMEscan assay (DiscoveRx). A fusion protein of a partial length construct of human TYK2 (JH2domain-pseudokinase) (amino acids G556 to D888 based on reference sequence NP_003322.3) and the DNA binding domain of NFkB was expressed in transiently transfected HEK293 cells. From these HEK 293 cells, extracts were prepared in M-PER extraction buffer (Pierce) in the presence of Protease Inhibitor Cocktail Complete (Roche) and Phosphatase Inhibitor Cocktail Set II (Merck) per manufacturers' instructions. The TYK2 (JH2domain-pseudokinase) fusion protein was labeled with a chimeric double-stranded DNA tag containing the NFkB binding site fused to an amplicon for qPCR readout, which was added directly to the expression extract (the final concentration of DNA-tag in the binding reaction is 0.1 nM).

T1 sequence (P29597 556-888): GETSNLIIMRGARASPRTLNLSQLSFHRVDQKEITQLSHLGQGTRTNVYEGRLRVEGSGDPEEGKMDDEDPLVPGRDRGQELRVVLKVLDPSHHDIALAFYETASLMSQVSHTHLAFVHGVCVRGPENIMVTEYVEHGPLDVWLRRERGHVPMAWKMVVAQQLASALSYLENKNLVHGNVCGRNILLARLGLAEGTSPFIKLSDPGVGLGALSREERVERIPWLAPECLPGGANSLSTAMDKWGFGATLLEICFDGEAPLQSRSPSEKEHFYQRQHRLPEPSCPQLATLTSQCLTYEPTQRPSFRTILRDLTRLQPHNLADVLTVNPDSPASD

Kd: < 10 nM
SMILES: CNc1cc2nn3c(cnc13)C(=O)N[C@H](C)COCc1cc(c3c(c1)ncn3C)N2 [US20250213571, Compound 8]
